Here are results for 9 compounds from patent publication US20240287037A1, “CYCLOALKYL COMPOUNDS AND PHARMACEUTICAL COMPOSITIONS THAT MODULATE IKZF2” (Plexium, Inc., priority 2021, published 2024).

The target of experiment [1] is IKZF2 (Helios) (Homo sapiens (Human), UniProt Q96SW2+Q9UKS7). Briefly: IKZF2 reporter degradation assay (HEK 293T IKZF2-mNeonGreen reporter cell line). The format is cell-based. Particulars: 24 hour incubation; for inhibition at 1 µM: HEK-293T, 24 h. From the text:
(§1) Polycistronic plasmids were constructed for the mammalian expression of fluorescent reporter fusions of human transcription factors IKZF1 (Ikaros), IKZF2 (Helios), and IKZF3 (Aiolos). The respective protein sequences had their C-terminal end joined to a GGGGS linker repeated three times followed by mNeonGreen, P2A sequence, and mScarlet. The DNA sequences of the open reading frames are as follows:
(§2) IKZF1, IKZF2, and IKZF3 constructs were cloned into the UCOE Hygromycin expression vectors (Millipore Sigma). Reporter constructs were transfected using cationic lipid reagents into adherent HEK 293T cells and stable integrants were selected by treatment with 200 μg/mL hygromycin B. Clonal populations were obtained from the population of stable integrants either by limiting dilution or fluorescence activated cell sorting.
(§3) The clonal stable cell lines were maintained under constant 200 μg/mL hygromycin B selection while being passaged for use in the degradation assays. […] The fluorescence intensity of the IKZF1/2/3-mNeonGreen (FITC channel) and mScarlet (PE channel) reporters were routinely analyzed by flow cytometry to confirm consistent expression levels between experiments.
(§4) The IKZF1/IKZF2/IKZF3 degradation assays were carried out by harvesting the HEK 293T reporter cell lines and resuspending the cells in media formulated for reduced background fluorescence (FluoroBrite; Thermo Fisher). The respective cell lines were seeded at a density of 4000 cells/well into black-walled 384-well optical grade assay tissue culture plates. The cells were incubated overnight at 37° C. to allow for attachment to the assay plate. Dilutions of the compounds were prepared in DMSO from 10 mM compound stocks. The assay plates were treated with appropriate concentrations of the compounds by dispensing the DMSO dilutions in quadruplicate wells with an upper limit of 0.5% final DMSO.
(§5) After 24 hour incubation with the compounds, the assay plates were imaged on an ImageXpress Pico microscopy system (cells maintained at 37° C. during imaging) to obtain the fluorescent readouts. The assay plates were imaged in the FITC and Tetramethylrhodamine (TRITC) channels to obtain the mNeonGreen fluorescence intensity (reporter degradation data) and mScarlet fluorescence intensity (for cell segmentation). 293T-IKZF1 and 293T-IKZF3 reporter cell lines were imaged with exposures of 500 milliseconds (ms) for both FITC and TRITC channels, while the 293T-IKZF2 reporter cell line was imaged with exposures of 1000 ms for FITC and 1250 ms for TRITC. The resulting data was analyzed with Cell Reporter Xpress software using the 2-channel cell scoring analysis with a “percent positive” readout. The TRITC channel was selected for the “nuclei” segmentation with a threshold of 20 while the FITC channel was selected for the “Marker 1” segmentation and a threshold of 100 for the IKZF and IKZF3 reporter lines. […] The minimum segmentation width was set to 6 micrometers and the maximum segmentation width was set to 15 micrometers for all cell lines. The DC50 calculations were determined by regression to best fit four-parameter logistic curves using GraphPad Prism.

Experiment [2] concerns the target human E3 ligase component cereblon (CRBN) (Homo sapiens (Human), UniProt Q96SW2). Briefly: Cereblon (CRBN) target engagement, NanoBRET TE Intracellular E3 Ligase Assay in transfected HEK-293T cells. The procedure:
HEK-293T cells were harvested ca. 75% confluent with trypsin and plated (500,000 cells/well) in a 6-well tissue culture plate in 2 mL of Dulbecco's Modified Eagle Medium (DMEM)^+10% Fetal Bovine Serum (FBS) and incubated overnight at 37° C.
The NanoLue-CRBN fusion vector (Nluc-CRBN; Promega) contains the coding region of human E3 ligase component cereblon (CRBN) fused to the C-terminus of the NanoLuc luciferase coding region. A mixture of 10 ng Nluc-CRBN and 990 ng DDB1 Expression Vector (Promega) was added to 125 μL Opti-Minimum Essential Medium (Opti-MEM™; Thermo Fisher) along with 2 μL P3000 reagent (Thermo Fisher) in a 1.5 mL epppendorf tube. This solution was added to Lipofectamine 3000 transfection reagent (5 μL; Thermo Fisher) in Opti-MEM (125 μL), mixed well, and incubated for 15 minutes at room temperature. The transfection mixture was added dropwise to cells and incubated overnight at 37° C., 5% CO2. Following transfection, cells were washed once with PBS, and trypsin (250 μL) was added and incubated 30-45 see to dislodge cells. Complete media (2 mL) was added to resuspend cells to form a single cell suspension. Cells were centrifuged at 320×g for 5 min at room temperature, the supernatant was removed, and the cell pellet resuspended in Opti-MEM (3 mL; wash step repeated ×2). After final resuspension in 5 mL Opti-MEM, cells were counted and resuspended at 200,000 cells/mL in Opti-MEM.
Cereblon target engagement was monitored by Bioluminescence Resonance Energy Transfer (BRET) in transfected HEK-293T cells using the NanoBRET TE Intracellular E3 Ligase Assay (Promega). Briefly, 384-well plates (white opaque plates, Corning 3574, low binding surface) were seeded with transfected HEK-293T cells (38 μl/well). 2 μL of 10 μM CRBN tracer (diluted 1:5 in Tracer Dilution Buffer) was added to each well. Plates were centrifuged at 320×g for 1 min at room temperature. […] Plates were shaken for 2 minutes on a microplate shaker to mix compounds. Plates were centrifuged at 320×g for 1 min at room temperature, and subsequently incubated for 2 hours at 37° C.
After incubation, plates were allowed to cool to room temperature for 15 minutes. 20 μL of 3X Complete NanoBRET™ Nano-Glo® Substrate plus Inhibitor Solution (Promega, 1:166 Substrate and 1:500 dilution of Extracellular NanoLuc® Inhibitor diluted in Opti-MEM) were added to each well, Plates were incubated with shaking at room temperature for 3 minutes covered with foil. Plates were read on a CLARIOstar microplate reader (BMG LabTech), measuring at 450 nm (donor emission) and 610 nm (acceptor emission). The IC50 values were determined by regression to best fit four-parameter logistic curves using GraphPad Prism.

The target of experiment [3] is GSPT1 (Homo sapiens (Human), UniProt P15170+Q96SW2). In words: GSPT1 reporter degradation assay (HEK293 hGSPT1 HiBiT-tagged cells). To be noted: 24 hour incubation. It counts as cell-based. The procedure:
HEK293_hGSPT1_HiBiT-tagged cells were generated using CRISPR-Cas12a technology. Briefly, ˜400,000 HEK293 cells were transiently co-transfected with precomplexed ribonuclear proteins (RNPs) consisting of […] of crRNA (IDT), […] of Cas12a protein (IDT), 3 μg of ssODN donor (IDT; AltRTM modifications), 78 pmol of electroporation enhancer (IDT), and 200 ng of pMaxGFP (Lonza). The transfection was performed via nucleofection (Lonza, 4D-Nucleofector X-unit) using solution P3 and program CM-130 in a (20 μL) cuvette. Five days post-nucleofection, cells were single-cell-sorted for GFP+ (transfected) cells by FACs in 96-well plates and clonally selected. Clones were screened and verified for the desired modification via targeted deep sequencing using gene-specific primers with partial Illumina adapter overhangs as previously described. In brief, clonal cell pellets were harvested, lysed, and used to generate gene-specific amplicons with partial Illumina adapters in PCR #1. Amplicons were indexed in PCR #2 and pooled with other targeted amplicons for other loci to create sequence diversity. Additionally, 10% PhiX sequencing control V3 (Illumina) was added to the pooled amplicon library prior to running the sample on a Miseq Sequencer System (Illumina) to generate paired 2×250 bp reads. Samples were demultiplexed using the index sequences, fastq files were generated, and NGS analysis was performed using CRIS.py.
The GSTP1 degradation assay was carried out by harvesting the HEK 293T reporter cell lines and resuspending the cells in media formulated for reduced background fluorescence (FluoroBrite; Thermo Fisher). The respective cell lines were seeded at a density of 8,000 cells/well into white-opaque 384-well optical grade assay tissue culture plates (Greiner 781080-20). The cells were incubated overnight at 37° C. to allow for attachment to the assay plate. Dilutions of the compounds were prepared in DMSO from 10 mM compound stocks. […] Plates were centrifuged at 320×g for 2 minutes at room temperature, and subsequently incubated at 37° C.
After 24 hour incubation with the compounds, the plates were allowed to cool to room temperature for 10 minutes. 30 μL of HiBiT lytic buffer+1:50 HiBiT substrate Solution were added to each well. Plates were centrifuged at 320×g for 2 minutes at room temperature and then incubated with shaking at room temperature for 10 minutes covered with foil. Plates were read on a CLARIOstar microplate reader (BMG LabTech), measuring at 450 nm (donor emission) and 610 nm or 630 nm (acceptor emission). The DC50 values were determined by regression to best fit four-parameter logistic curves using GraphPad Prism.

The target in experiment [4] is IKZF3 (Aiolos) (Homo sapiens (Human), UniProt Q96SW2+Q9UKT9). In words: IKZF3 reporter degradation assay (HEK 293T IKZF3-mNeonGreen reporter cell line). It counts as cell-based. Particulars: HEK 293T reporter cells, 24 hour incubation.
Sequence of IKZF3 (Aiolos) (Q9UKT9 whole entry): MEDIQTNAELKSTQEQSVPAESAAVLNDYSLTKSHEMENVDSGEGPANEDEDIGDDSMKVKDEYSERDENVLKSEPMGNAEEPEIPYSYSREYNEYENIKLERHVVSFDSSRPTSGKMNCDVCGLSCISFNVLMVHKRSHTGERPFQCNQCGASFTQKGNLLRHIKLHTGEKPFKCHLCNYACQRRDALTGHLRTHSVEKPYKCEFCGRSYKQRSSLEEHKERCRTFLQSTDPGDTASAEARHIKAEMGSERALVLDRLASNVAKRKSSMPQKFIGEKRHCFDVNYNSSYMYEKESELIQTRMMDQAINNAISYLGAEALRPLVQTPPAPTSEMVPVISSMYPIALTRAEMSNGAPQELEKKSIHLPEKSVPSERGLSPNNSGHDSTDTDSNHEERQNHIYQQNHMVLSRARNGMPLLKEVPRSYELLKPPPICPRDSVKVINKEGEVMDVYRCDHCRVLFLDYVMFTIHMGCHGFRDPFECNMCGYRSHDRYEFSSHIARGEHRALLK
Sequence of IKZF3 (Aiolos) (Q96SW2 whole entry): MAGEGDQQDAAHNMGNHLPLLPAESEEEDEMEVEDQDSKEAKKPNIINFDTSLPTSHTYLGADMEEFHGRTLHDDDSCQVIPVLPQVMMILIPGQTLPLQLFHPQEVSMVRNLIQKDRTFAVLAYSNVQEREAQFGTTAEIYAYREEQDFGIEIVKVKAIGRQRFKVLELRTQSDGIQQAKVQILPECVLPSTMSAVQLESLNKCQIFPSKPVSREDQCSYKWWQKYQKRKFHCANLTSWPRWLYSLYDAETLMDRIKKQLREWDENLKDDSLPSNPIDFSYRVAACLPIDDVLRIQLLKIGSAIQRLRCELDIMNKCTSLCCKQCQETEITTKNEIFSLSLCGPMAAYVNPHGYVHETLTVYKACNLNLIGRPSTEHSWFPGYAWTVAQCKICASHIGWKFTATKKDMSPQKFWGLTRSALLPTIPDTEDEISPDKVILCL
Sequence of IKZF3 (Aiolos) (Q16531 whole entry partner): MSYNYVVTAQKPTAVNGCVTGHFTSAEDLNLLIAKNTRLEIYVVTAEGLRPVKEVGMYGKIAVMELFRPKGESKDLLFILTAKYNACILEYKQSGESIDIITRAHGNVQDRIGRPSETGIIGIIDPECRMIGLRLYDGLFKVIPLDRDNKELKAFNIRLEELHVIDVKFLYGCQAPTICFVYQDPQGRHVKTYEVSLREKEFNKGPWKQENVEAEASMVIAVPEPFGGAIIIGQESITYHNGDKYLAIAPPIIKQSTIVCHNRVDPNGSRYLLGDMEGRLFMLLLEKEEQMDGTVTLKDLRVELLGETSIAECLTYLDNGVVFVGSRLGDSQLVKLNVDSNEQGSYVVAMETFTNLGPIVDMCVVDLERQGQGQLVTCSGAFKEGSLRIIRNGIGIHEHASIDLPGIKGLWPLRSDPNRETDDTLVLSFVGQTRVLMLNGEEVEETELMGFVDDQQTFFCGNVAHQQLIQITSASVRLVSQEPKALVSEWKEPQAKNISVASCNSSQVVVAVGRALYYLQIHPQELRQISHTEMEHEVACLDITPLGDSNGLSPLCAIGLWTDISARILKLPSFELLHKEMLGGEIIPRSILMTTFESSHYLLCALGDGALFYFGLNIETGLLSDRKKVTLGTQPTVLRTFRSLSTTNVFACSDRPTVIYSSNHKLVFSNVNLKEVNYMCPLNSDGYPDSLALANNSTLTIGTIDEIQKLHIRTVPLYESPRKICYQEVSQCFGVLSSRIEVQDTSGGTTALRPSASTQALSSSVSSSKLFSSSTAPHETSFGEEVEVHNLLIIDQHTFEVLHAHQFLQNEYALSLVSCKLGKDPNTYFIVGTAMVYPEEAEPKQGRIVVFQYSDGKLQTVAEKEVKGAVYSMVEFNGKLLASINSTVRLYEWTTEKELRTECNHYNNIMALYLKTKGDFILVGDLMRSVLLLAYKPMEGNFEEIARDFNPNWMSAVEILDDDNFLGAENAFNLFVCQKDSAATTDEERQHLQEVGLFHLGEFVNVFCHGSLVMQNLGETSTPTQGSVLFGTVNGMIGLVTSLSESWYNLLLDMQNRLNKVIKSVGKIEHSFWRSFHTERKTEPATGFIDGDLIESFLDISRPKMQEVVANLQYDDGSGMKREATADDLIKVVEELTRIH
Source text: as §1, §2, §3, §4, §5

Experiment [5] concerns the target IKZF1 (Ikaros) (Homo sapiens (Human), UniProt Q13422+Q96SW2). Briefly: IKZF1 reporter degradation assay (HEK 293T IKZF1-mNeonGreen reporter cell line). The format is cell-based. Particulars: HEK 293T reporter cells, 24 hour incubation.
Source text: as §1, §2, §3, §4, §5

Setting [6] is: Table 3, HEK 293T reporter cells.
[7] abbreviates: second (untitled) table after Table 3.
Setting [8] is: Table 3, 2 hours at 37° C., read-out: CRBN Binding EC50.
Setting [9] is: second (untitled) table after Table 3, read-out: CRBN Binding EC50.

pEC50: −log10 of the molar value. Where two headings read alike, the source gives them in different places.

Sequence of IKZF2 (Helios) (Q9UKS7 whole entry, the tested form may be a part): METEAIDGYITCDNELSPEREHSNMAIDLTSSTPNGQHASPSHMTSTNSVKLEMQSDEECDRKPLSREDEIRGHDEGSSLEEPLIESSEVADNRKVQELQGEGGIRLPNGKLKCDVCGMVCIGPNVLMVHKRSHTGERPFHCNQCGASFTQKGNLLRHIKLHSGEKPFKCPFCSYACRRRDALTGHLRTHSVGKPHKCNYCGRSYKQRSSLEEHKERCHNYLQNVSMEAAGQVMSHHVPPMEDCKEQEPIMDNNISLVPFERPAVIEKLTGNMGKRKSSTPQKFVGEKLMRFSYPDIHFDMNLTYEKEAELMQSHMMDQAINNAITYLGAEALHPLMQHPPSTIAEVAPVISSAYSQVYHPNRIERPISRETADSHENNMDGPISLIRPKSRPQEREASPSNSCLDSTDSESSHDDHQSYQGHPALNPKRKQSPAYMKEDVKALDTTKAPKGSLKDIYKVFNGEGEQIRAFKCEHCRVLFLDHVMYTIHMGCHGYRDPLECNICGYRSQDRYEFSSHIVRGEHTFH
Sequence of IKZF2 (Helios) (Q96SW2 whole entry, the tested form may be a part): as the sequence (Q96SW2 whole entry) above
Sequence of IKZF2 (Helios) (Q16531 whole entry partner, the tested form may be a part): as the sequence (Q16531 whole entry partner) above
Sequence of human E3 ligase component cereblon (CRBN) (Q96SW2 whole entry): as the sequence (Q96SW2 whole entry) above
Sequence of human E3 ligase component cereblon (CRBN) (Q16531 whole entry partner): as the sequence (Q16531 whole entry partner) above
Sequence of GSPT1 (P15170 whole entry): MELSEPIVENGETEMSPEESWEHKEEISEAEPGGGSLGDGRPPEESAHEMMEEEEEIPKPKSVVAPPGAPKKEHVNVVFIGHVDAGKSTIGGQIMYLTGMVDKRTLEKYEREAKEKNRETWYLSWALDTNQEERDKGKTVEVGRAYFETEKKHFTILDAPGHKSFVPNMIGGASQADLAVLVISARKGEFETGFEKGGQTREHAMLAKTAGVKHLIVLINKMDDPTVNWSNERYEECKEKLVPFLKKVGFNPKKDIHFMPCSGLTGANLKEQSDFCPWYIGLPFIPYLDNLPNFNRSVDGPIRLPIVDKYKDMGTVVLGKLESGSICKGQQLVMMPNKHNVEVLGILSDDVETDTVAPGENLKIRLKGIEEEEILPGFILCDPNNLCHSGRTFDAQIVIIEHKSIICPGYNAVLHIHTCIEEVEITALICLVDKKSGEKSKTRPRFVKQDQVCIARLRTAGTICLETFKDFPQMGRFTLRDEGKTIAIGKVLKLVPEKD
Sequence of GSPT1 (Q96SW2 whole entry): as the sequence (Q96SW2 whole entry) above
Sequence of GSPT1 (Q16531 whole entry partner): as the sequence (Q16531 whole entry partner) above
Sequence of IKZF1 (Ikaros) (Q13422 whole entry): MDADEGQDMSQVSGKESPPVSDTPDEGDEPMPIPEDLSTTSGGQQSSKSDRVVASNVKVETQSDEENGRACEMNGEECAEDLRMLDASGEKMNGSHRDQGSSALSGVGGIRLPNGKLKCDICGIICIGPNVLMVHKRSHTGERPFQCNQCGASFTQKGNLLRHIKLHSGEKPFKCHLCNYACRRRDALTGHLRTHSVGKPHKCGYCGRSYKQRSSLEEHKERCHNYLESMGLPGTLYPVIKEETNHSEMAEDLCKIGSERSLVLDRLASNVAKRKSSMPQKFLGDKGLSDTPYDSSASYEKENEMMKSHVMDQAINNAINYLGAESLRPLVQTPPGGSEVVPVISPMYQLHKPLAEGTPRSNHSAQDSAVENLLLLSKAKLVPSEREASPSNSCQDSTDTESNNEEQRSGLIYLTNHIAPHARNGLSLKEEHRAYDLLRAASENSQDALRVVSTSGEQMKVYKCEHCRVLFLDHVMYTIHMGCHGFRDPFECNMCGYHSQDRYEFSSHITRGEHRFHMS
Sequence of IKZF1 (Ikaros) (Q96SW2 whole entry): as the sequence (Q96SW2 whole entry) above
Sequence of IKZF1 (Ikaros) (Q16531 whole entry partner): as the sequence (Q16531 whole entry partner) above

`COC1CCC(C2CN([C@H]3CCCC[C@@H]3Oc3ccc4c(c3)CN(C3CCC(=O)NC3=O)C4=O)C2)CC1` (stereo partly drawn) [Compound 7, 3-(5-(((1S,2S)-2-(3-((cis)-4-methoxycyclohexyl)azetidin-1-yl)cyclohexyl)oxy)-1-oxoisoindolin-2-yl)piperidine-2,6-dione] returned an inhibition at 1 µM in experiment [1] (setting [6]) of 80.1%. For the same compound, the “IKZF2% Degradation @ 1 μM” value in experiment [1] (setting [7]) is 80.1%.
Regarding `COC1CCC(C2CN([C@H]3CCCC[C@@H]3Oc3ccc4c(c3)CN(C3CCC(=O)NC3=O)C4=O)C2)CC1` (stereo partly drawn) [Compound 8, 3-(5-(((1S,2S)-2-(3-((trans)-4-methoxycyclohexyl)azetidin-1-yl)cyclohexyl)oxy)-1-oxoisoindolin-2-yl)piperidine-2,6-dione], in experiment [1] (setting [7]), at 1 µM the inhibition was 80.1%. In experiment [1] (setting [6]), the “IKZF2% Degradation @ 1 μM” value was determined as 80.1%.
`COC1CCC(C2CN([C@H]3CCC[C@@H]3Oc3ccc4c(c3)CN(C3CCC(=O)NC3=O)C4=O)C2)CC1` (stereo partly drawn) [Compound 9, 3-(5-(((1S,2S)-2-(3-((cis)-4-methoxycyclohexyl)azetidin-1-yl)cyclopentyl)oxy)-1-oxoisoindolin-2-yl)piperidine-2,6-dione]: the inhibition at 1 µM in experiment [1] (setting [6]) and in experiment [1] (setting [7]) was 77.7% throughout.
Turning to `COC1CCC(C2CN([C@H]3CCC[C@@H]3Oc3ccc4c(c3)CN(C3CCC(=O)NC3=O)C4=O)C2)CC1` (stereo partly drawn) [Compound 10, 3-(5-(((1S,2S)-2-(3-((trans)-4-methoxycyclohexyl)azetidin-1-yl)cyclopentyl)oxy)-1-oxoisoindolin-2-yl)piperidine-2,6-dione], the “IKZF2% Degradation @ 1 μM” value in experiment [1] (setting [6]) and in experiment [1] (setting [7]) was 80.8% each time.
Consider `COC1CCC(C2CN([C@H]3CCCC[C@@H]3Oc3ccc4c(c3)CN(C35CC(C3)C(=O)NC5=O)C4=O)C2)CC1` (stereo partly drawn) [Compound 11, 1-(5-(((1S,2S)-2-(3-((cis)-4-methoxycyclohexyl)azetidin-1-yl)cyclohexyl)oxy)-1-oxoisoindolin-2-yl)-3-azabicyclo[3.1.1]heptane-2,4-dione], for which the pEC50 in experiment [2] (setting [8]) and in experiment [2] (setting [9]) was less than 5.00 in each case.
For `COC1CCC(C2CN([C@H]3CCC[C@@H]3Oc3ccc4c(c3)CN(C35CC(C3)C(=O)NC5=O)C4=O)C2)CC1` (stereo partly drawn) [Compound 12, 1-(5-(((1S,2S)-2-(3-((cis)-4-methoxycyclohexyl)azetidin-1-yl)cyclopentyl)oxy)-1-oxoisoindolin-2-yl)-3-azabicyclo[3.1.1]heptane-2,4-dione], the pEC50 in experiment [2] (setting [8]) and in experiment [2] (setting [9]) was less than 5.00 in each case.
In the case of `O=C1NC(=O)C2(N3Cc4cc(O[C@H]5CCC[C@@H]5N5CC(C6CCC(F)(F)CC6)C5)ccc4C3=O)CC1C2` [Compound 14, 1-(5-(((1S,2S)-2-(3-(4,4-difluorocyclohexyl)azetidin-1-yl)cyclopentyl)oxy)-1-oxoisoindolin-2-yl)-3-azabicyclo[3.1.1]heptane-2,4-dione], the pEC50 in experiment [2] (setting [8]) and in experiment [2] (setting [9]) was less than 5.00 in each case.
For `O=C1NC(=O)C2(N3Cc4cc(O[C@H]5CCCC[C@@H]5N5CC(C6CCC(F)(F)CC6)C5)ccc4C3=O)CC1C2` [Compound 15, 1-(5-(((1S,2S)-2-(3-(4,4-difluorocyclohexyl)azetidin-1-yl)cyclohexyl)oxy)-1-oxoisoindolin-2-yl)-3-azabicyclo[3.1.1]heptane-2,4-dione], the pEC50 in experiment [2] (setting [8]) and in experiment [2] (setting [9]) was 5.21 in each case.
For `N#CC1(C2CN([C@H]3CCCC[C@@H]3Oc3ccc4c(c3)CN(C3CCC(=O)NC3=O)C4=O)C2)CCC1` (stereo partly drawn) [Compound 23, 1-(1-((1S,2S)-2-((2-(2,6-dioxopiperidin-3-yl)-1-oxoisoindolin-5-yl)oxy)cyclohexyl)azetidin-3-yl)cyclobutane-1-carbonitrile], the DC50 is 0.003 µM in experiment [1] (HEK 293T reporter cells), greater than 30 µM in experiment [3], greater than 30 µM in experiment [4] and greater than 30 µM in experiment [5]. The inhibition at 1 µM in experiment [1] (setting [6]) and in experiment [1] (setting [7]) was 87.4% throughout.

As a reminder, the inhibition is the drop in the measured response relative to a control, in per cent. A high value points to strong suppression. What is called pEC50 is −log10 of the EC50, conventionally taken in molar units. The DC50 is the midpoint of the concentration-degradation curve. Low readings indicate degradation at low concentration, high ones degradation only at high concentration.
